# Reference: US7998977B2, “Inhibitors of AKT (protein kinase B)” (Eli Lilly and Company, priority 2006, dated 2011)
# Counter-ions that a name gives are not always drawn.
# What was measured:
# Phospho-GSK3b (pGSK3b) = experiment: In vivo target inhibition by a single IV injection, U87MG tumors in nude mice; settings: Mus musculus, U-87 MG, U87MG glioblastoma tumors, single IV injection of 25 mg/kg, at 1 hour, read-out: inhibition of pGSK3b in tumor
# Protocol: In Vivo Target Inhibition Studies
# In Vivo Target Inhibition by a Single IV Injection:
# Exponentially growing U87MG cells derived from a human glioblastoma are implanted subcutaneously in the rear flank of nude mice. When the tumors reach the size of 200-250 mm^3, compounds are administered to the animals by a single IV injection in a dose-response study or in a time-course study. At the end of each treatment, animals are asphyxiated with CO2. Tumors are harvested by surgical excision, quickly frozen in liquid nitrogen and stored at −80° C. until analysis. Sera are prepared from blood harvested from the heart by cardiac puncture and stored at −80° C. until analysis.
# The Akt inhibitor is extracted from serum with acetonitrite/methanol and analyzed alongside an internal standard by LC/MS/MS. Tumors are homogenized in 2 volumes of a lysis buffer containing 25 mM Tris (pH 7.5), Roche complete protease inhibitors, and 1 mM vanadate with Powergen 125 homogenizer, then sequentially passed thorough an 18 gauge needle and a 23 gauge needle. Soluble cytoplasmic extracts are collected from the supernatant fraction after the lysates are centrifuged for 30 minutes at 20,000×g. Protein concentrations in the cytoplasmic extracts are determined with a BCA kit. Phospho-GSK3b (pGSK3b) in the soluble extracts is analyzed with the ELISA Kit.
# [1] = test system: H1155 cells derived from human non-small cell lung cancer; experiment: In vivo tumor growth inhibition, H1155 non-small cell lung cancer xenograft; design: species or system nude mice; settings: continuous infusion of 24 mg/kg/day for 4 days, measured at the end of the assay
# Protocol: (§1) In Vivo Tumor Growth Inhibition Studies
# (§2) Exponentially growing U87MG cells derived from a human glioblastoma or H1155 cells derived from human non-small cell lung cancer are implanted subcutaneously in the rear flank of nude mice. Three days after tumor cell implants, microsurgery is performed to cannulate catheter for continuous infusion via jugular vein. Example 1, formulated in D5W (5% dextrose in water) at various concentrations, is then infused into mice next day at 40 μL/hr for 4 days. Tumors are measured twice weekly until the study is terminated, usually at 24 days after the initial implants. Tumor growth inhibition is calculated by dividing the average tumor volume of the treated group by that of the vehicle-treated group.
# [2] = molecular target: T1, Active human recombinant Akt1 (full-length) (Homo sapiens, UniProt P31749); experiment: Akt1 Phosphorylation Assay (competitive fluorescence polarization immunoassay, FPIA); format: biochemical; settings: 20 μM ATP, 60 min at room temperature, n=3; read-out: IC50, inhibition of Akt1 phosphorylation
# T1 construct: Active human recombinant Akt1 (full-length) purified from Sf9 insect cells; purchased Upstate Biotechnology, Inc; host or cells: Sf9 insect cells
# Description: Akt1 Phosphorylation Assay
# The assay measures the phosphorylation of PKC alpha pseudo-substrate peptide by a Competitive Fluorescence Polarization Immunoassay (FPIA). The assay indirectly measures the concentration of phospho-peptide product formed in a reaction by measuring the change in the intensity of polarized light emitted from a fluorescently-labeled tracer peptide when displaced from a phospho-specific antibody by the phospho-peptide product. Calibration with a standard curve yields quantitative results.
# Active human recombinant Akt1 (full-length) purified from Sf9 insect cells is obtained from Upstate Biotechnology, Inc. Peptide Substrate (M.W.1561) is purchased. […]
# After 60 min at room temperature the reaction is terminated by adding 25 μL of Quench/Detection Mix containing 260 mM EDTA, 3.4 nM Fluorescein Tracer, and 7.5 nM Anti-Phosphoserine Antibody. The plates are incubated in darkness at room temperature for more than 3 hr, and then fluorescence polarization (at λex=485 nm, […]) is read using a Tecan Ultra plate reader. The concentration of phosphorylated product per well is calculated from millipolarization (mP) units using a prepared peptide competitor dilution series as a standard curve.
# [3] = test system: Phospho-GSK3b (pGSK3b), a target of Akt in cells; experiment: Cell-based ELISA (cELISA) for detection of phospho-GSK3b in U87MG cells; settings: Homo sapiens, U-87 MG, 2 hr treatment, n=8, read-out: IC50, inhibition of pGSK3b
# Protocol: Cell-Based ELISA (cELISA) for the Detection of Phospho-GSK3b (pGSK3b)
# Exponentially grown U87MG cells derived from a human glioblastoma are seeded into 96-well plates and incubated overnight at 37° C. with 5% CO2. Ten concentrations of the compound of Example 1 are prepared from a 4 mM stock (in 100% DMSO) by 1:2 serial dilutions into the culture media. Equal volume of each of the serial dilutions is added directly to the cells. Treatment is stopped 2 hr later. At the end of the treatment, the culture media is removed, and the cells are washed once with ice-cold phosphate-buffered saline (PBS). The cells are fixed in PREFER according to vendor's procedure, followed by rinses in PBS/0.1% SDS and PBS/0.1% Triton X-100®, then overnight incubation in SEA Block Blocking buffer. The blocking step is followed by an overnight incubation of the cells with a rabbit antibody against pGSK3b/Ser9, followed by a goat anti-rabbit IgG. The pGSK3b is detected by SuperSignal ELISA Femto following the vendor's procedure.
# [4] = test system: U87MG cells derived from a human glioblastoma; experiment: In vivo tumor growth inhibition, U87MG glioblastoma xenograft; design: species or system nude mice; settings: continuous infusion of 27 mg/kg/day for 4 days, measured at the end of the assay
# Protocol: as §1, §2
# [5] = Effect of initial solution pH on rate of precipitation; format: physicochemical; settings: room temperature
# Description: A pharmaceutical composition of 4-[5-(2-amino-ethanesulfonyl)-isoquinolin-7-yl]-phenol monohydrochloride hemihydrate comprises a non-reducing sugar and a pH adjusting agent. […] […]. Also, the rate at which precipitation takes place is pH dependent.
# T1 sequence (P31749 whole entry): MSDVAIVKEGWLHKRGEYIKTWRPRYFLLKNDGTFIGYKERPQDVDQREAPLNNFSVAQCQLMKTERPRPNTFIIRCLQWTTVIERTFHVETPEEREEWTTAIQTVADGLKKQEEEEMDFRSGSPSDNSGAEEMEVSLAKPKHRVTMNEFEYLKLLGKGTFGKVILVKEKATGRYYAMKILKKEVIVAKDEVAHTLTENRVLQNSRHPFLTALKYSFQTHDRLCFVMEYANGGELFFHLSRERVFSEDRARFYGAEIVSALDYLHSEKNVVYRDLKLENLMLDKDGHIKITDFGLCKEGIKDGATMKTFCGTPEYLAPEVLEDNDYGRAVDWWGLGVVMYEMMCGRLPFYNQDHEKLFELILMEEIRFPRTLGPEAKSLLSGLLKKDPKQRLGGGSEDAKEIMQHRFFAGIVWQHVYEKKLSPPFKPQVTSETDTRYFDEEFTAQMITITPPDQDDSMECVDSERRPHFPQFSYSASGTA
SMILES,inhibition at 25 mg/kg (Phospho-GSK3b (pGSK3b)),tumor growth inhibition [1],IC50 [2],IC50 [3],tumor growth inhibition [4],"Precipitation (ppt) ([5]; 0.001 N HCl/3% mannitol, initial pH 4.20, approx. 15 mg/mL)","Precipitation (ppt) ([5]; 0.0025 N HCl/3% mannitol, initial pH 3.91, approx. 15 mg/mL)","Precipitation (ppt) ([5]; 0.005 N HCl/3% mannitol, initial pH 3.58, approx. 15 mg/mL)","Precipitation (ppt) ([5]; 0.01 N HCl/3% mannitol, initial pH 3.19, approx. 15 mg/mL)","Precipitation (ppt) ([5]; 0.05 N HCl/3% mannitol, initial pH 1.68, approx. 15 mg/mL)"
"NCCS(=O)(=O)c1cc(-c2ccc(O)cc2)cc2cnccc12 [Example 1, 4-[5-(2-Amino-ethanesulfonyl)-isoquinolin-7-yl]-phenol di-hydrochloride Salt]",76%,63%,0.045 µM,2.04 µM,50%,,,,,
Cl.Cl.NCCS(=O)(=O)c1cc(-c2ccc(O)cc2)cc2cnccc12.NCCS(=O)(=O)c1cc(-c2ccc(O)cc2)cc2cnccc12.O [4-[5-(2-Amino-ethanesulfonyl)-isoquinolin-7-yl]-phenol Monohydrochloride Hemihydrate],,,,,,ppt after 24 hr,ppt after 36 hr,ppt after 48 hr,no ppt up to 96 hours,no ppt up to 96 hours
